# Experiments:
# [1] = tested on: HCV subtype 2A replicon in Huh-7 cells; experiment: HCV sub-genomic reporter replicon assay, subtype 2A; assay type: cell-based; settings: Hepatitis C virus; Huh-7 cells, HCV subtype 2A replicon; read-out: Replicon 2A EC50
# Description: (§1) Compounds were also tested in Huh-7 cells harboring sub-genomic reporter replicons derived from HCV subtypes 1B and 2A (ref.: Stuyver, L. J.; Whitaker, T.; McBrayer, T. R.; Hernandez-Santiago, B. I.; Lostia, S.; Tharnish, P. M.; Ramesh, M.; Chu, C. K.; Jordan, R.; Shi, J. X.; Rachakonda, S.; Watanabe, K. A.; Otto, M. J.; Schinazi, R. F. Antimicrob. Agents Chemother. 2003, 47, 244-254).
# [2] = tested on: A549; experiment: Cytostatic/cytotoxic MTT assay, A549; assay type: cell-based; settings: Homo sapiens, A549; 72 h incubation; read-out: MTT, IC50 A549
# From the text: (§2) Unless otherwise stated, all cells were purchased from the […] (ATCC). The CCRF-CEM line is derived from T lymphoblastic leukemia, evincing high chemosenzitivity, K562 represent cells from a […] patient sample with bcr-abl translocation, HCT116 is colorectal tumor cell line and its p53 gene knock-down counterpart (HCT116p53−/−, Horizon Discovery, UK) is a model of human cancers with p53 inactivation frequently associated with poor prognosis, A549 cell line is lung adenocarcinoma. The daunorubicin resistant subline of CCRF-CEM cells (CEM-DNR bulk) and paclitaxel resistant subline K562-TAX were selected in our laboratory by cultivation of maternal cell lines in increasing concentrations of daunorubicine or paclitaxel, respectively. The CEM-DNR cells overexpress mrp-1 and mdr-1 genes, while K562-TAX cells overexpress mdr-1 only. Both proteins belong to the family of ABC transporters and are involved in the primary and/or acquired multidrug resistance phenomenon (ref.: Gottesman, M. M.; Fojo, T.; Bates, S. E. Multidrug resistance in cancer: role of ATP-dependent transporters. Nat. Rev. Cancer. 2002, 2, 48-58. (b) Noskova, V.; Dzubak, P.; Kuzmina, G.; Ludkova, A.; Stehlik, D.; Trojanec, R.; Janostakova, A.; Korinkova, G.; Mihal, V.; Hajduch, M. In vitro chemoresistance profile and expression/function of MDR associated proteins in resistant cell lines derived from CCRF-CEM, K562, A549 and MDA MB 231 parental cells. Neoplasma 2002, 49, 418-425). Non-malignant MRC-5 and BJ cells, derived from normal human fibroblasts, were used as controls. The cells were maintained in Nunc/Corning 80 cm^2 plastic tissue culture flasks and cultured in cell culture medium (DMEM/RPMI 1640 with 5 g/L glucose, 2 mM glutamine, 100 U/mL penicillin, 100 µg/mL streptomycin, 10% fetal calf serum, and NaHCO3). Cell suspensions were prepared and diluted according to the particular cell type and the expected target cell density (25,000-30,000 cells/well based on cell growth characteristics). Cells were added by pipette (80 L) into 96-well microtiter plates. Inoculates were allowed a pre-incubation period of 24 h at 37° C. and 5% CO2 for stabilization. Four-fold dilutions, in 20-L aliquots, of the intended test concentration were added to the microtiter plate walls at time zero. All test compound concentrations were examined in duplicate. Incubation of the cells with the test compounds lasted for 72 h at 37° C., in a 5% CO2 atmosphere at 100% humidity. At the end of the incubation period, the cells were assayed using MTT. Aliquots (10 L) of the MTT stock solution (5 mg/ml) were pipetted into each well and incubated for another 1-4 h. After this incubation period the formazan produced was dissolved by addition of 100 µL/well of 10% aq SDS (pH 5.5), followed by a further incubation at 37° C. overnight. The optical density was measured at 540 nm. The IC50 value, the drug concentration inhibiting the cell growth by 50%, was calculated from appropriate dose-response curves.
# (§3) In vitro cytotoxic/cytostatic activity final nucleosides 1-5 was initially evaluated against […] cell lines derived from human solid tumors including lung (A549 cells) and colon (HCT116 and HCT116p53−/−) carcinomas, as well as leukemia cell lines (CCRF-CEM, CEM-DNR, K562 and K562-TAX) and, for comparison, non-malignant BJ and MRC-5 fibroblasts. Concentrations inhibiting the cell growth by 50% (IC50) were determined using a quantitative metabolic staining with 3-(4,5-dimethylthiazol-2-yl)-2,5-diphenyltetrazolium bromide (MTT) (ref.: Denizot, F.; Lang, R. Rapid colorimetric assay for cell growth and survival: Modifications to the tetrazolium dye procedure giving improved sensitivity and reliability. J. Immunol. Meth. 1986, 89, 271-277) following a 3-day treatment.
# [3] = tested on: CEM-DNR-bulk; experiment: Cytostatic/cytotoxic MTT assay, CEM-DNR-bulk; assay type: cell-based; settings: Homo sapiens; daunorubicin resistant subline, 72 h; read-out: MTT, IC50 CEM-DNR-bulk
# From the text: as §2, §3
# Multidrug resistance is a major therapeutic problem in cancer chemotherapy. […]
# [4] = tested on: HCV subtype 1B replicon in Huh-7 cells; experiment: HCV sub-genomic reporter replicon assay, subtype 1B; assay type: cell-based; settings: Hepatitis C virus; Huh-7 cells, HCV subtype 1B replicon; read-out: Replicon 1B EC50
# Description: as §1
# [5] = tested on: CCRF-CEM cells; experiment: BrU incorporation analysis (RNA synthesis); assay type: cell-based, human; settings: CCRF-CEM cells treated at IC50 for 24 hrs
# Description: Cells were cultured and treated as for cell cycle analysis. Before harvesting, they were pulse-labelled with 1 mM 5-bromouridine (BrU) for 30 min. The cells were fixed in 1% buffered paraformaldehyde with 0.05% of NP-40, incubated in room temperature for 15 min and than in the fridge overnight. They were then washed in 1% glycin in PBS, washed in PBS and stained with primary anti-BrdU antibody crossreacting to BrU (Exbio) for 30 min at room temperature in the dark. Cells were than washed with PBS and stained with secondary anti-mouse-FITC antibody (Sigma). Following the staining the cells are washed with PBS and fixed with 1% PBS buffered paraformaldehyde with 0.05% of NP-40. The cells were then washed with PBS, incubated with propidium iodide (0.1 mg/mL) and RNAse A (0.5 mg/mL) for 1 h at room temperature in the dark, and finally analyzed by flow cytometry using a 488 nm single-beam laser (FACSCalibur, Becton Dickinson).
# (§4) However, the major mechanism of action was inhibition of RNA synthesis (BrU incorporation). […] Cell cycle alterations (G1, S, G2/M) were not observed in treated cells under specified experimental conditions.
# [6] = tested on: CCRF-CEM cells; experiment: Cell cycle and apoptosis analysis (flow cytometry, propidium iodide); assay type: cell-based, human; settings: CCRF-CEM cells treated at IC50 for 24 hrs
# Description: After the incubation period, cells were then washed with cold 1×PBS and fixed in 70% ethanol added dropwise and stored overnight at −20° C. Afterwards, cells were washed in hypotonic citrate buffer, treated with RNase (50 μg/mL) and stained with propidium iodide. Flow cytometry using a 488 nm single-beam laser (Becton Dickinson) was used for measurement. The data were analyzed according to the program ModFitLT (Verity), and apoptosis was expressed as the percentage of cells with a propidium content lower than that in the G0/G1 population. Half of the sample was used for pH3^ser10 antibody (Sigma) labeling and subsequent flow cytometry analysis of mitotic cells.
# as §4
SMILES,EC50 [1],melting point,IC50 [2],IC50 [3],EC50 [4],"BrU+ (RNA synthesis), % of total cell populations [5]","G1, % of total cell populations [6]","G2/M, % of total cell populations [6]","S, % of total cell populations [6]","sub-G1 (apoptosis), % of total cell populations [6]"
"CNc1ncnc2c1c(-c1cc3ccccc3o1)cn2[C@@H]1O[C@H](CO)[C@@H](O)[C@H]1O [Compound 3f, 5-(Benzofuran-2-yl)-4-methylamino-7-(β-D-ribofuranosyl)-7H-pyrrolo[2,3-d]pyrimidine]",13.6 µM,203 to 206 °C,> 20 µM,> 20 µM,2.05 µM,,,,,
"CN(C)c1ncnc2c1c(-c1ccco1)cn2[C@@H]1O[C@H](CO)[C@@H](O)[C@H]1O [Compound 4a, 4-Dimethylamino-5-(furan-2-yl)-7-(β-D-ribofuranosyl)-7H-pyrrolo[2,3-d]pyrimidine]",1.35 µM,,4.6 µM,3.14 µM,1.49 µM,0.4%,31%,15.4%,53.6%,10.2%
"CSc1ncnc2c1c(-c1ccsc1)cn2[C@@H]1O[C@H](CO)[C@@H](O)[C@H]1O [Compound 2d, 4-Methylsulfanyl-7-(β-D-ribofuranosyl)-5-(thiophen-3-yl)-7H-pyrrolo[2,3-d]pyrimidine]",> 44 µM,192 to 193 °C,> 20 µM,> 20 µM,10.9 µM,,,,,
"CSc1ncnc2c1c(-c1ccoc1)cn2[C@@H]1O[C@H](CO)[C@@H](O)[C@H]1O [Compound 2b, 5-(Furan-3-yl)-4-methylsulfanyl-7-(β-D-ribofuranosyl)-7H-pyrrolo[2,3-d]pyrimidine]",> 44 µM,121 to 124 °C,0.28 µM,> 20 µM,4.72 µM,,,,,
"CN(C)c1ncnc2c1c(-c1ccoc1)cn2[C@@H]1O[C@H](CO)[C@@H](O)[C@H]1O [Compound 4b, 4-Dimethylamino-5-(furan-3-yl)-7-(β-D-ribofuranosyl)-7H-pyrrolo[2,3-d]pyrimidine]",> 44 µM,94 to 97 °C,> 20 µM,> 20 µM,7.88 µM,,,,,
"CNc1ncnc2c1c(-c1ccoc1)cn2[C@@H]1O[C@H](CO)[C@@H](O)[C@H]1O [Compound 3b, 5-(Furan-3-yl)-4-methylamino-7-(β-D-ribofuranosyl)-7H-pyrrolo[2,3-d]pyrimidine]",> 44 µM,90 to 97 °C,> 20 µM,> 20 µM,35.9 µM,,,,,
"CNc1ncnc2c1c(-c1ccsc1)cn2[C@@H]1O[C@H](CO)[C@@H](O)[C@H]1O [Compound 3d, 4-Methylamino-7-(β-D-ribofuranosyl)-5-(thiophen-3-yl)-7H-pyrrolo[2,3-d]pyrimidine]",> 44 µM,135 to 138 °C,> 20 µM,> 20 µM,> 44 µM,,,,,
"COc1ncnc2c1c(-c1ccco1)cn2[C@@H]1O[C@H](CO)[C@@H](O)[C@H]1O [Compound 1a, 5-(Furan-2-yl)-4-methoxy-7-(β-D-ribofuranosyl)-7H-pyrrolo[2,3-d]pyrimidine]",0.03 µM,,0.03 µM,0.16 µM,0.02 µM,13.8%,42.8%,12.9%,44.3%,6.8%
"CNc1ncnc2c1c(-c1ccccc1)cn2[C@@H]1O[C@H](CO)[C@@H](O)[C@H]1O [Compound 3e, 4-Methylamino-5-phenyl-7-(β-D-ribofuranosyl)-7H-pyrrolo[2,3-d]pyrimidine]",> 44 µM,149 to 153 °C,> 20 µM,> 20 µM,> 44 µM,,,,,
"CSc1ncnc2c1c(I)cn2[C@@H]1O[C@H](CO)[C@@H](O)[C@H]1O [Compound 2h, 5-Iodo-4-methylsulfanyl-7-(β-D-ribofuranosyl)-7H-pyrrolo[2,3-d]pyrimidine]",> 44 µM,217 to 219 °C,> 20 µM,> 20 µM,19.2 µM,,,,,
"COc1ncnc2c1c(-c1ccccc1)cn2[C@@H]1O[C@H](CO)[C@@H](O)[C@H]1O [Compound 1e, 4-Methoxy-5-phenyl-7-(β-D-ribofuranosyl)-7H-pyrrolo[2,3-d]pyrimidine]",> 44 µM,117 to 120 °C,> 20 µM,> 20 µM,21 µM,,,,,
"Cc1ncnc2c1c(-c1cccs1)cn2[C@@H]1O[C@H](CO)[C@@H](O)[C@H]1O [Compound 5c, 4-Methyl-7-(β-D-ribofuranosyl)-5-(thiophen-2-yl)-7H-pyrrolo[2,3-d]pyrimidine]",> 44 µM,110 to 111 °C,> 20 µM,> 20 µM,6.67 µM,,,,,
"CSc1ncnc2c1c(-c1ccccc1)cn2[C@@H]1O[C@H](CO)[C@@H](O)[C@H]1O [Compound 2e, 4-Methylsulfanyl-5-phenyl-7-(β-D-ribofuranosyl)-7H-pyrrolo[2,3-d]pyrimidine]",> 44 µM,169 to 170 °C,> 20 µM,> 20 µM,23.3 µM,,,,,

# — US9586986B2, “Substituted 7-deazapurine ribonucleosides for therapeutic uses” (Institute of Organic Chemistry and Biochemistry ASCR, v.v.i., priority 2014, dated 2017)
